The source made the active and inactive calls. The calls are words filed in the database; no cut-off is given here.
Key:
Mus musculus [1] = test: Antiinflammatory activity in DSS-induced C57BL/6 mouse model of colitis assessed as decrease in […] level 25 to 100 mg/kg, po administered via gavage twice a day for 10 days; assay type: functional, organism-based; settings: dose 25-100 mg/kg, time 10.0 day
[2] = Toxicity in healthy C57BL/6 mouse assessed as histological changes in heart at 100 mg/kg, po administered for 10 days by H and E staining based assay; assay type: organism-based; settings: in vivo, 240 h, time 10 day
[3] = Tmax in healthy C57BL/6 mouse at 25 mg/kg, po measured up to 6 hrs by UPLC-MS/MS analysis; assay type: ADME, organism-based; settings: in vivo
Mus musculus [4] = test: Anti-colitis activity against DSS-induced colitis in C57BL/6 mouse model assessed as increase in colon length at 25 mg/kg, po administered via gavage twice daily for 10 days; assay type: functional, organism-based; settings: time 10.0 day
[5] = AUC (0 to 6 hrs) in healthy C57BL/6 mouse at 25 mg/kg, po measured up to 6 hrs by UPLC-MS/MS analysis; assay type: ADME, organism-based; set-up: route oral, dose 25 mg/kg, time <=6; settings: in vivo
[6] = Metabolic stability in healthy C57BL/6 mouse colon assessed as half life measured up to 12 hrs by HPLC analysis; assay type: ADME, tissue-based
[7] = Cmax in healthy C57BL/6 mouse at 25 mg/kg, po measured up to 6 hrs by UPLC-MS/MS analysis; assay type: ADME, organism-based; set-up: route oral, dose 25 mg/kg, time <=6; settings: in vivo
[8] = Metabolic stability in healthy C57BL/6 mouse plasma assessed as half life measured up to 12 hrs by HPLC analysis; assay type: ADME, cell-free
Mus musculus [9] = test: Anti-colitis activity against DSS-induced colitis in C57BL/6 mouse model assessed as decrease in MPO level in colon at 25 mg/kg, po administered via gavage twice a day for 10 days; assay type: functional; set-up: scale not given: the % may be the effect or the level left; settings: time 10 day
Mus musculus [10] = test: Anti-colitis activity against DSS-induced C57BL/6 mouse model of colitis assessed as fold change in colon length at 25 to 100 mg/kg, po administered via gavage twice a day for 10 days relative to SASP; assay type: functional; settings: dose 25-100 mg/kg; time 10 day
[11] = Toxicity in healthy C57BL/6 mouse assessed as histological changes in kidney at 100 mg/kg, po administered for 10 days by H and E staining based assay; assay type: organism-based; settings: in vivo, 240 h, time 10 day
[12] = Stability in simulated intestinal fluid at pH 6.8 assessed as half life measured up to 12 hrs by HPLC analysis; assay type: ADME
Mus musculus [13] = test: Antiinflammatory activity in DSS-induced C57BL/6 mouse model of colitis assessed as decrease in IL-1beta level 25 to 100 mg/kg, po administered via gavage twice a day for 10 days; assay type: functional, organism-based; settings: dose 25-100 mg/kg, time 10.0 day
[14] = Metabolic stability in healthy C57BL/6 mouse liver assessed as half life measured up to 12 hrs by HPLC analysis; assay type: ADME, tissue-based
Mus musculus [15] = test: Anti-colitis activity against DSS-induced C57BL/6 mouse model of colitis assessed as decrease in MPO level in colon at 100 mg/kg, po administered via gavage twice a day for 10 days; assay type: functional; set-up: scale not given: the % may be the effect or the level left; settings: time 10 day
[16] = Tmax in DSS-induced colitis C57BL/6 mouse model at 25 mg/kg, po measured up to 6 hrs by UPLC-MS/MS analysis; assay type: ADME, organism-based; settings: in vivo
[17] = Chemical stability in phosphate buffer at pH 6.8 assessed as half life measured up to 12 hrs by HPLC analysis; assay type: physicochemical
[18] = molecular target: T1, Solute carrier family 15 member 1 (Homo sapiens, UniProt P46059); test: Substrate activity at PEPT1 in human Caco-2 cells assessed as inhibition of Gly-Sar substrate uptake by UPLC-MS/MS analysis; assay type: cell-based; settings: human, caco-2
T1 sequence (P46059 whole entry): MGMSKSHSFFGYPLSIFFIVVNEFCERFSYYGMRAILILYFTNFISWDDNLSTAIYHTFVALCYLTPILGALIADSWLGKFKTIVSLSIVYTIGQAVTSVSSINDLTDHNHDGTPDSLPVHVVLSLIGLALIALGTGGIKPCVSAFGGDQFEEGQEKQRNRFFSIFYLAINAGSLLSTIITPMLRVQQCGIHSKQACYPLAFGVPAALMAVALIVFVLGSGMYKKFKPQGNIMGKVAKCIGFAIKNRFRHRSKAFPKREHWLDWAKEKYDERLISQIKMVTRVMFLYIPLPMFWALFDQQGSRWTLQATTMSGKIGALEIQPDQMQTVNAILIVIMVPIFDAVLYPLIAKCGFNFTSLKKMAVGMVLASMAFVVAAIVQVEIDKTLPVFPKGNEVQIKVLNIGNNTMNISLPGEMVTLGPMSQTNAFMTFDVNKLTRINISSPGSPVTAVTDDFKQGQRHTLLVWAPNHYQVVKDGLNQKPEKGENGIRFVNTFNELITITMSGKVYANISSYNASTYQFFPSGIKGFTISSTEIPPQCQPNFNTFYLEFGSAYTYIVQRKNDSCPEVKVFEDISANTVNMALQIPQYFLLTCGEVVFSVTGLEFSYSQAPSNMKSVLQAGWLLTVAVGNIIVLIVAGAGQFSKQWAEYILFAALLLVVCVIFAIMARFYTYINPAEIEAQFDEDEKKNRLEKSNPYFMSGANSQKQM

[19] = Stability in simulated gastric fluid at pH 1.2 assessed as half life measured up to 12 hrs by HPLC analysis; assay type: ADME
Mus musculus [20] = test: Anti-colitis activity against DSS-induced colitis in C57BL/6 mouse model assessed as fold decrease in disease activity index at 25 mg/kg, po administered via gavage twice daily for 10 days relative to control; assay type: functional; settings: time 10 day
[21] = Metabolic stability in DSS-induced C57BL/6 inflammatory mouse model colonic flora homogenate assessed as half life measured up to 12 hrs by HPLC analysis; assay type: ADME; settings: C57BL/6, mouse
Mus musculus [22] = test: Antiinflammatory activity in DSS-induced C57BL/6 mouse model of colitis assessed as decrease in TNF-alpha level 25 to 100 mg/kg, po administered via gavage twice a day for 10 days; assay type: functional, organism-based; settings: dose 25-100 mg/kg, time 10.0 day
[23] = Toxicity in healthy C57BL/6 mouse assessed as histological changes in spleen at 100 mg/kg, po administered for 10 days by H and E staining based assay; assay type: organism-based; settings: in vivo, 240 h, time 10 day
[24] = Metabolic stability in healthy C57BL/6 mouse colonic flora homogenate assessed as half life measured up to 12 hrs by HPLC analysis; assay type: ADME
[25] = Chemical stability in 0.1 M HCl at pH 1.2 assessed as half life measured up to 12 hrs by HPLC analysis; assay type: physicochemical
[26] = Toxicity in healthy C57BL/6 mouse assessed as effect on colon length at 100 mg/kg, po administered for 10 days; assay type: organism-based; settings: in vivo, 240 h, time 10 day
Mus musculus [27] = test: Anti-colitis activity against DSS-induced C57BL/6 mouse model of colitis assessed as fold change in disease activity index at 25 to 100 mg/kg, po administered via gavage twice a day for 10 days relative to SASP; assay type: functional; settings: dose 25-100 mg/kg; time 10 day
[28] = Stability in human Caco-2 cells homogenate assessed as half life measured up to 12 hrs by HPLC analysis; assay type: ADME, cell-based; settings: Caco-2 cell homogenate
[29] = Toxicity in healthy C57BL/6 mouse assessed as histological changes in liver at 100 mg/kg, po administered for 10 days by H and E staining based assay; assay type: organism-based; settings: in vivo, 240 h, time 10 day
[30] = Cmax in DSS-induced colitis C57BL/6 mouse model at 25 mg/kg, po measured up to 6 hrs by UPLC-MS/MS analysis; assay type: ADME, organism-based; set-up: route oral, dose 25 mg/kg, time <=6; settings: in vivo

Tmax [3]: 4 h | AUC [5]: 16.61 microM/L.hr | half-life [6]: > 12 h | Cmax [7]: 5.79 µM | half-life [8]: > 12 h | half-life [12]: > 12 h | half-life [14]: > 12 h | Tmax [16]: 4 h | half-life [17]: > 12 h | inhibition (INH) [18]: Not Active | half-life [19]: > 12 h | half-life [21]: > 12 h | half-life [24]: > 12 h | half-life [25]: > 12 h | half-life [28]: > 12 h | Cmax [30]: 24 µM
SMILES: O=C(O)[C@@H](CO)NC(=O)[C@H]1C[C@@H](O)CN1
Activity (Mus musculus [1]): Active | Activity [2]: Non-Toxic | Activity (Mus musculus [4]): Active | Activity (Mus musculus [9]): 72.8% | fold change (FC) (Mus musculus [10]): 1.2 | Activity [11]: Non-Toxic | Activity (Mus musculus [13]): Active | Activity (Mus musculus [15]): 59.7% | fold change (FC) (Mus musculus [20]): 1.5 | Activity (Mus musculus [22]): Active | Activity [23]: Non-Toxic | Activity [26]: Non-Toxic | fold change (FC) (Mus musculus [27]): 2.3 | Activity [29]: Non-Toxic

From ChEMBL document CHEMBL5046231, “Modulation of Naturally Occurring Linear Dipeptide Chirality to Reduce the Affinity for Oligopeptide Transporter 1 and Increase Intestinal Stability for an Enhanced Colon-Targeting Effect in the Treatment of Inflammatory Bowel Disease: An Application of trans-4-l-Hydroxyprolyl-l-serine” (J Med Chem, 2022)
